13 compounds from BindingDB's records for doi:10.1021/jm980718d (University of Massachusetts Medical Center, 1999) can be followed below.

Chain of Uracil-DNA glycosylase (Human herpesvirus 1) (P10186 whole entry, looked up): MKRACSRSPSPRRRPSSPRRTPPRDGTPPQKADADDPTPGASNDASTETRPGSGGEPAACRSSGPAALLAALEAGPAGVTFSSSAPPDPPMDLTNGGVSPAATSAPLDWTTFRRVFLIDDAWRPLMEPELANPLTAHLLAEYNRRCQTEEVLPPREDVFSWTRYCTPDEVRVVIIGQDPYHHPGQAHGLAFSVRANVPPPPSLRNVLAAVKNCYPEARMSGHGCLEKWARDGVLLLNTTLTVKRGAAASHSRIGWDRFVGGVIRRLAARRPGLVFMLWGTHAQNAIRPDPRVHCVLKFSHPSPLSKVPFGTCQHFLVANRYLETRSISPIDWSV

The first assay addresses Uracil-DNA glycosylase (Human herpesvirus 1) (UniProt P10186). Kind of assay: Inhibitory potency against HSV-1 UDG (Herpes Simplex virus type-I Uracil DNA glycosylase).
In general, IC50 refers to the point on the concentration scale where inhibition reaches its midpoint. `CCCCCCc1ccc(Nc2cc(=O)[nH]c(=O)n2CCO)cc1` [6-(4-Hexyl-phenylamino)-1-(2-hydroxy-ethyl)-1H-pyrimidine-2,4-dione] had an IC50 of 20 µM.

`CCCCCCc1ccc(Nc2cc(=O)[nH]c(=O)n2CCCO)cc1` [6-(4-Hexyl-phenylamino)-1-(3-hydroxy-propyl)-1H-pyrimidine-2,4-dione] yielded an IC50 of 90 µM.

`CCCCCCOc1ccc(Nc2cc(=O)[nH]c(=O)[nH]2)cc1` [6-(4-Hexyloxy-phenylamino)-1H-pyrimidine-2,4-dione] yielded an IC50 of 30 µM.

`CCCCCCc1ccc(Nc2cc(=O)[nH]c(=O)n2CCCOC)cc1` [6-(4-Hexyl-phenylamino)-1-(3-methoxy-propyl)-1H-pyrimidine-2,4-dione] displayed an IC50 of more than 100 µM.

`CCCCCCc1ccc(Nc2cc(=O)[nH]c(=O)n2CCOC)cc1` [6-(4-Hexyl-phenylamino)-1-(2-methoxy-ethyl)-1H-pyrimidine-2,4-dione] had an IC50 of more than 100 µM.

`CCCCCCc1ccc(Nc2cc(=O)[nH]c(=O)[nH]2)cc1` [6-(4-Hexyl-phenylamino)-1H-pyrimidine-2,4-dione] gave an IC50 of 30 µM.

The compound `CCc1ccc(Nc2cc(=O)[nH]c(=O)[nH]2)cc1` [6-(4-Ethyl-phenylamino)-1H-pyrimidine-2,4-dione] gave an IC50 of 500 µM.

Another assay has the same target. Kind of assay: Inhibitory potency against HSV-1 Uracil-DNA glycosylase.
`CCCCCCCCOc1ccc(Nc2cc(=O)[nH]c(=O)[nH]2)cc1` [6-(4-Octyloxy-phenylamino)-1H-pyrimidine-2,4-dione] had a half-maximal inhibitory concentration (IC50) of 25 µM.

Consider `CCCCCCCCCCc1ccc(Nc2cc(=O)[nH]c(=O)[nH]2)cc1` [6-(4-Decyl-phenylamino)-1H-pyrimidine-2,4-dione], for which the IC50 was 35 µM.

`CCCCCCCCc1ccc(Nc2cc(=O)[nH]c(=O)n2CCOC)cc1` [1-(2-Methoxy-ethyl)-6-(4-octyl-phenylamino)-1H-pyrimidine-2,4-dione] gave an IC50 of 15 µM.

As for `CCCCCCCCc1ccc(Nc2cc(=O)[nH]c(=O)[nH]2)cc1` [6-(4-Octyl-phenylamino)-1H-pyrimidine-2,4-dione], the IC50 was 8 µM.

`CCCCCCCCc1ccc(Nc2cc(=O)[nH]c(=O)n2CCO)cc1` [1-(2-Hydroxy-ethyl)-6-(4-octyl-phenylamino)-1H-pyrimidine-2,4-dione] came in with an IC50 of 10 µM.

The compound `CCCCCCCCc1ccc(Oc2cc(=O)[nH]c(=O)[nH]2)cc1` [6-(4-Octyl-phenoxy)-1H-pyrimidine-2,4-dione] showed an IC50 of 150 µM.
